Each structure is given as a SMILES string.

Data on 4 molecules can be found in patent US20240299481A1, “STEPHANIA CEPHARANTHA-DERIVED ALKALOID-CONTAINING PREPARATION” (JAPAN AS REPRESENTED BY DIRECTOR-GENERAL OF NATIONAL …, priority 2021, published 2024).

For series [1], the system named is Novel coronavirus SARS-COV-2 Wk-521 strains (Wuhan strain). The series is classed as cell-based. The following applies: for antiviral effect compared with the preparation / other alkaloids: Wuhan strain, VeroE6/TMPRSS2 cells.
The subject of the next series is VeroE6/TMPRSS2 cells. Type of series: cell-based. The following applies: 24 hours, FIG. 2A-2E. Here is the method:
VeroE6/TMPRSS2 cells were cultured at 37° C. in 5% of a CO2 atmosphere by using Dulbecco's Modified Eagle's Medium (DMEM, Life Technologies Corporation) added with 10% of a fetal bovine serum (FBS, Cell Culture Bioscience Corporation), 100 units/ml of penicillin, 100 μg/ml of streptomycin, 10 mM of HEPES (pH7.4) and 1 mg/ml of G418 disulfate (Nacalai Tesque, Inc.). In infection tests, it was changed to 2% of FBS and no G418 disulfate was added.
The Stephania cepharantha-derived alkaloid-containing preparation, Cepharanthine, Isotetrandrine, Cycleanine, or Berbamine were added to the medium of the VeroE6/TMPRSS2 cells and, and the cells cultured for 24 hours were fixed with 4% of paraformaldehyde, and nucleuses were stained with DAPI. Thereafter, the number of viable cells were measured using an ImageXpress Micro Confocal (Molecular Device, LLC).

For series [2], the system named is human coronavirus OC43 strain. The following applies: early stage of infection in cells, MRC-5 human lung cells; cited from earlier work.
The test system of another series is SARS coronavirus. The following applies: cited from earlier work.

On to `COc1ccc2cc1Oc1ccc(cc1)C[C@H]1c3cc(c(OC)cc3CCN1C)Oc1c(OC)c(OC)cc3c1[C@@H](C2)N(C)CC3` [Isotetrandrine], for which, in series [1], the “antiviral effect (number of viral RNA with increasing addition concentration)” value was “showed antiviral effects” and the “antiviral effect compared with the preparation / other alkaloids” value was “comparable to the Stephania cepharantha-derived alkaloid-containing preparation”. The “cytotoxic effect (number of viable cells with increasing addition concentration)” value in the series on VeroE6/TMPRSS2 cells is recorded as “showed cytotoxic effects”.
For `COc1cc2c3c(c1OC)Oc1ccc(cc1)C[C@@H]1c4c(cc(OC)c(OC)c4Oc4ccc(cc4)C[C@H]3N(C)CC2)CCN1C` [Cycleanine] the same measures were “showed antiviral effects”, “comparable to the Stephania cepharantha-derived alkaloid-containing preparation” and “showed cytotoxic effects”.
In the case of `COc1ccc2cc1Oc1ccc(cc1)C[C@H]1c3c(cc4c(c3Oc3cc5c(cc3OC)CCN(C)[C@@H]5C2)OCO4)CCN1C` [Cepharanthine], in series [1], the “antiviral effect (number of viral RNA with increasing addition concentration)” value was “showed antiviral effects” and the “antiviral effect compared with the preparation / other alkaloids” value was “comparable to the Stephania cepharantha-derived alkaloid-containing preparation”. Besides, the “cytotoxic effect (number of viable cells with increasing addition concentration)” value in the series with VeroE6/TMPRSS2 cells was “showed cytotoxic effects”. Moreover, the “antiviral effects on the human coronavirus OC43 strain” value in series [2] is listed as “have antiviral effects”. Besides, the “antiviral effect against the SARS coronavirus” value with SARS coronavirus is reported as “has an antiviral effect”.
Turning to `COc1cc2c3cc1Oc1c(OC)c(OC)cc4c1[C@@H](Cc1ccc(O)c(c1)Oc1ccc(cc1)C[C@@H]3N(C)CC2)N(C)CC4` [Berbamine], in series [1], the “antiviral effect (number of viral RNA with increasing addition concentration)” value was “showed antiviral effects” and the “antiviral effect compared with the preparation / other alkaloids” value is listed as “weak antiviral effect”. In addition, in the series on VeroE6/TMPRSS2 cells, the “cytotoxic effect (number of viable cells with increasing addition concentration)” value is given as “showed cytotoxic effects”.
